Each molecule was assayed against Nav1.5 ion channel (Homo sapiens (Human), UniProt Q14524) (assay: Manual patch clamp inhibition of Nav1.5 current in HEK293 cell). Settings: whole-cell patch clamp, read-out: IC50 on inhibiting the Nav1.5 channel activity.
Assay type: cell-based
Protocol: The purpose of the experiment is to investigate the effect of the compounds on Nav1.5 ion channel in an […] experiment. Nav1.5 ion channel is stably expressed on HEK293 cell. After the Nav1.5 current becomes stable, the Nav1.5 currents before and after the administration of the compound are compared so as to obtain the effect of the compound on the Nav1.5 ion channel.
Extracellular fluid: NaCl, 137 mM; KCl, 4 mM; CaCl2), 1.8 mM; MgCl2, 1 mM; HEPES, 10; glucose, 10 mM; pH 7.4 (NaOH titration).
Intracellular fluid: aspartic acid, 140 mM; MgCl2, 2 mM; EGTA, 11 mM; HEPES, 10 mM; pH 7.2 (CsOH titration).
The test compound was dissolved in dimethyl sulfoxide (DMSO) at a stock concentration of 9 mM. The stock solution of the test compound was dissolved in the extracellular fluid on the day of the test and formulated into the required concentration.
1) The compound was formulated into solutions with specified concentrations. The solutions were added to the pipelines respectively in order from high to low concentration, and the pipelines were marked.
2) The cell was transferred to the perfusion tank, and perfused with the extracellular fluid. The intracellular fluid was stored in small batches in a −80° C. refrigerator, and melted on the day of the experiment. The electrode was pulled with PC-10 (Narishige, Japan). Recording was carried out with the whole-cell patch clamp, and the noise was filtered at one-fifth of the sampling frequency.
3) All compounds were perfused with a perfusion system that uses its own gravity. Each concentration was tested in at least two cells. After the current stabilized (or after 5 minutes), the blocking effect of the compound was calculated by comparing the changes in the current before and after the administration of the compound.
The cell was clamped at −80 mV. The cell was depolarized to Vhalf with a square wave lasting 8 milliseconds, hyperpolarized to −120 mV with a square wave lasting 20 milliseconds, and depolarized to −10 mV with a square wave lasting 20 milliseconds to obtain the Nav1.5 current. This procedure was repeated every 15 seconds. The maximum current caused by the −10 mV square wave was measured. After the current became stable, the test compound was perfused. After the response became stable, the blocking intensity was calculated.
The data was stored in the computer system for analysis. Data collection and analysis were carried out by pCLAMP 10 (Molecular Devices, Union City, CA). Stable current means that the absolute average value of the peak current of four consecutive scans exceeds 200 pA and the CV value is less than 10%, or the average value of the peak current of four consecutive scans is between 200 pA and 50 pA and the CV value is less than 30%. The average value of the last four current peaks after the current stabilized was used to calculate the effect of the compound at the concentration.

Chain of Nav1.5 ion channel (Q14524 whole entry): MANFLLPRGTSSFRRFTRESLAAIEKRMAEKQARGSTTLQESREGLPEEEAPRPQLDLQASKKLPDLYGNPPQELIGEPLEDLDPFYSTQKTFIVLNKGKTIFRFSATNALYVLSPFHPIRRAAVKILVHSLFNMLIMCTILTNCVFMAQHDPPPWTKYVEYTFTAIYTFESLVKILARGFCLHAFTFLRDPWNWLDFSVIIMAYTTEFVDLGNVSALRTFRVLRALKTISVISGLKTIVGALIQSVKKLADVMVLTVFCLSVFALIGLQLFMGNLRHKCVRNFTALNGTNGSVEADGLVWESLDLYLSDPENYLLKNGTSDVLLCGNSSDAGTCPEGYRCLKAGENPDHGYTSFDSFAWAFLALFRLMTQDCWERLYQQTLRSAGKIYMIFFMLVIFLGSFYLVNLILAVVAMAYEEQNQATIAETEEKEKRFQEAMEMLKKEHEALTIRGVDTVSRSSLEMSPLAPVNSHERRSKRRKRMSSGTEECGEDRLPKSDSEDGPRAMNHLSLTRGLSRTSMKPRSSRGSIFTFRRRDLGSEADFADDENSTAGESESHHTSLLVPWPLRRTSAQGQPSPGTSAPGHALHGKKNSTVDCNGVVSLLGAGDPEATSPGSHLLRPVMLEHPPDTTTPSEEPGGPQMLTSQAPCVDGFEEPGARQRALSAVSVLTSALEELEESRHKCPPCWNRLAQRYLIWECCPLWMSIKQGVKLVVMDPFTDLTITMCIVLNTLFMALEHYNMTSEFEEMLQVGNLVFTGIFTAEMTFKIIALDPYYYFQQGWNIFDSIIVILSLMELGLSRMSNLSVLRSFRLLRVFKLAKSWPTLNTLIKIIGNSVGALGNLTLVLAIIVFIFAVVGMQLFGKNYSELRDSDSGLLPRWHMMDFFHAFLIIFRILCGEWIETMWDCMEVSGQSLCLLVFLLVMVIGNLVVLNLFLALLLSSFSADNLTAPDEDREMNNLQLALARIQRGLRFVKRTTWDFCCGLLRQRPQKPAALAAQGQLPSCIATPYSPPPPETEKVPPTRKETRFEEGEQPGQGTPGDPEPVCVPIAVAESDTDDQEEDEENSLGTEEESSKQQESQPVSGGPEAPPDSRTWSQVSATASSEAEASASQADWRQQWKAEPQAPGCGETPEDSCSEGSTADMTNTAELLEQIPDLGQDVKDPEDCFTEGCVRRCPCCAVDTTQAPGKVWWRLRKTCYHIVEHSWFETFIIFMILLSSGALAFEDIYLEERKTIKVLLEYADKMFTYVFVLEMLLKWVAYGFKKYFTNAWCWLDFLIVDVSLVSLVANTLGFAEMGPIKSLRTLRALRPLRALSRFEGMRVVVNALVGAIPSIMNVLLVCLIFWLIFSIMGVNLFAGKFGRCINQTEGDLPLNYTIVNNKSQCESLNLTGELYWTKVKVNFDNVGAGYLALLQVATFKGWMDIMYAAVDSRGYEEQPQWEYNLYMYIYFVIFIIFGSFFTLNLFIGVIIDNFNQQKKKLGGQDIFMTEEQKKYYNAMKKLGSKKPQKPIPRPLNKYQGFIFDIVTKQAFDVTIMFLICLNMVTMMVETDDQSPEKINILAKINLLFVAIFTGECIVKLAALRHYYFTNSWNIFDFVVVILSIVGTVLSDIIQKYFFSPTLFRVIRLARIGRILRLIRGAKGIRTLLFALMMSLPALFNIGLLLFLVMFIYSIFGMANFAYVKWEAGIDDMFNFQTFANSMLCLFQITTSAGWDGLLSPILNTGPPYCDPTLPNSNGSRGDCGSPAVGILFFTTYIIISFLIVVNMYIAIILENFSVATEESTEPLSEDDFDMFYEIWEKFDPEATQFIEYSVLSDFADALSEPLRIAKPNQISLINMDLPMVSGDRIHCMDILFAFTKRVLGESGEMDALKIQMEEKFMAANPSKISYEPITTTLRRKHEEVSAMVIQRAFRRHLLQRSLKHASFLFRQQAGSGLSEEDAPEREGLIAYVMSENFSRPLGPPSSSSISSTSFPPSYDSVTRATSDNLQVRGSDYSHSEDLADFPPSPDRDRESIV

Compared with `O=C(/C=C/CNC1(COc2ccc(/C(=C(/CC(F)(F)F)c3ccccc3)c3ccc4[nH]nc(F)c4c3)cn2)CC1)N1CCOCC1` [Example 1, (E)-1-Morpholino-4-((1-(((5-((Z)-4,4,4-trifluoro-1-(3-fluoro-1H-indazol-5-yl)-2-phenylbut-1-en-1-yl)pyridin-2-yl)oxy)methyl)cyclopropyl)amino)but-2-en-1-one], `O=C(/C=C/CNC1(COc2ccc(/C(=C(/CC(F)(F)F)c3ccccc3)c3ccc4[nH]nc(F)c4c3)cn2)CC1)N1CC[C@H](O)C1` [Example 41, (E)-1-((S)-3-Hydroxypyrrolidin-1-yl)-4-((1-(((5-((Z)-4,4,4-trifluoro-1-(3-fluoro-1H-indazol-5-yl)-2-phenylbut-1-en-1-yl)pyridin-2-yl)oxy)methyl)cyclopropyl)amino)but-2-en-1-one] is lower in IC50: > 10 µM for the first, 5.3 µM for the second.

`CN(C)C(=O)/C=C/CNC1(COc2ccc(/C(=C(/CC(F)(F)F)c3ccccc3)c3ccc4[nH]nc(F)c4c3)cn2)CC1` [Example 39, (E)-N,N-Dimethyl-4-((1-(((5-((Z)-4,4,4-trifluoro-1-(3-fluoro-1H-indazol-5-yl)-2-phenylbut-1-en-1-yl)pyridin-2-yl)oxy)methyl)cyclopropyl)amino)but-2-enamide] and `O=C(/C=C/CNC1(COc2ccc(/C(=C(/CC(F)(F)F)c3ccccc3)c3ccc4[nH]nc(F)c4c3)cn2)CC1)N1CC(O)C1` [Example 40, (E)-1-(3-Hydroxyazetidin-1-yl)-4-((1-(((5-((Z)-4,4,4-trifluoro-1-(3-fluoro-1H-indazol-5-yl)-2-phenylbut-1-en-1-yl)pyridin-2-yl)oxy)methyl)cyclopropyl)amino)but-2-en-1-one] are within 1.5-fold of each other in IC50: 8.2 µM for the first, 11.5 µM for the second.

Reference: US12325696B2, “Indazole derivative, preparation method therefor, and pharmaceutical application thereof” (JIANGSU HENGRUI MEDICINE CO., LTD., priority 2019, dated 2025)
